What was measured:
Experiment in all cases: relative viability (nuclei count vs DMSO), 5 days (fraction); higher = more cells survive
[1] = compound: Cc1ccc(-n2nc(C(C)(C)C)cc2NC(=O)Nc2ccc(OCCN3CCOCC3)c3ccccc23)cc1 [Doramapimod] + O=C(CCCCCCC(=O)Nc1ccccc1)NO [Vorinostat] (partner 1 µM)
Procedure, shortened: (§1)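 For relative viability, nuclei counts in treated wells were divided by those in vehicle wells. Lung cancer cell lines had been pin-tool dosed in 1536-well plates the day after seeding and cultured for 5 days, then fixed and stained in one step (final 0.05% Triton X-100, 1% formaldehyde, 1 ug/ml Hoechst) and imaged at 4×. Doses were one drug alone or a fixed anchor-drug dose plus five library-drug doses (not always all listed) in √10 steps, and values are duplicate-plate medians.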

[2] = compound: C1=CC=C2C(=C1)C=CC(=C2SSC3=C(C=CC4=CC=CC=C43)O)O [IPA-3] + Cc1nc(NC(=O)N2CCC[C@H]2C(N)=O)sc1-c1ccnc(C(C)(C)C(F)(F)F)c1 [Alpelisib] (partner 2 µM)
Procedure, shortened: as §1

[3] = compound: Cc1ccc(-n2nc(C(C)(C)C)cc2NC(=O)Nc2ccc(OCCN3CCOCC3)c3ccccc23)cc1 [Doramapimod] + CC(=O)Nc1cccc(-n2c(=O)n(C3CC3)c(=O)c3c(Nc4ccc(I)cc4F)n(C)c(=O)c(C)c32)c1 [Trametinib] (partner 0.02 µM)
Procedure, shortened: as §1

[4] = compound: Cn1c(Nc2ccc(C(F)(F)F)cc2)nc2cc(Oc3ccnc(-c4ncc(C(F)(F)F)[nH]4)c3)ccc21 [RAF265] + Cc1nc(Nc2ncc(C(=O)Nc3c(C)cccc3Cl)s2)cc(N2CCN(CCO)CC2)n1 [Dasatinib] (partner 0.075 µM)
Procedure, shortened: as §1

## NCI-H2405
[1]; first compound 0.02 µM
  relative viability: 1.1
[1]; first compound 0.06325 µM
  relative viability: 1.12
[1]; first compound 0.2 µM
  relative viability: 1.22
[1]; first compound 0.6325 µM
  relative viability: 0.958
[1]; first compound 2 µM
  relative viability: 1.02
[2]; first compound 0.2 µM
  relative viability: 0.815
[2]; first compound 0.6325 µM
  relative viability: 0.771
[2]; first compound 2 µM
  relative viability: 0.753
[2]; first compound 6.325 µM
  relative viability: 0.853
[2]; first compound 20 µM
  relative viability: 0.829
[3]; first compound 0.02 µM
  relative viability: 0.613
[3]; first compound 0.06325 µM
  relative viability: 0.618
[3]; first compound 0.2 µM
  relative viability: 0.612
[3]; first compound 0.6325 µM
  relative viability: 0.705
[3]; first compound 2 µM
  relative viability: 0.581
[4]; first compound 0.01 µM
  relative viability: 0.242
[4]; first compound 0.03162 µM
  relative viability: 0.194
[4]; first compound 0.1 µM
  relative viability: 0.191
[4]; first compound 0.3162 µM
  relative viability: 0.159
[4]; first compound 1 µM
  relative viability: 0.193

## LCLC-103H
[1]; first compound 0.02 µM
  relative viability: 0.788
[1]; first compound 0.06325 µM
  relative viability: 0.799
[1]; first compound 0.2 µM
  relative viability: 0.875
[1]; first compound 0.6325 µM
  relative viability: 0.845
[1]; first compound 2 µM
  relative viability: 0.751
[2]; first compound 0.2 µM
  relative viability: 0.926
[2]; first compound 0.6325 µM
  relative viability: 0.806
[2]; first compound 2 µM
  relative viability: 0.81
[2]; first compound 6.325 µM
  relative viability: 0.943
[2]; first compound 20 µM
  relative viability: 1.02
[3]; first compound 0.02 µM
  relative viability: 0.656
[3]; first compound 0.06325 µM
  relative viability: 0.675
[3]; first compound 0.2 µM
  relative viability: 0.683
[3]; first compound 0.6325 µM
  relative viability: 0.68
[3]; first compound 2 µM
  relative viability: 0.679
[4]; first compound 0.01 µM
  relative viability: 0.431
[4]; first compound 0.03162 µM
  relative viability: 0.467
[4]; first compound 0.1 µM
  relative viability: 0.478
[4]; first compound 0.3162 µM
  relative viability: 0.386
[4]; first compound 1 µM
  relative viability: 0.338

## NCI-H460
[1]; first compound 0.02 µM
  relative viability: 0.773
[1]; first compound 0.06325 µM
  relative viability: 0.817
[1]; first compound 0.2 µM
  relative viability: 0.76
[1]; first compound 0.6325 µM
  relative viability: 0.794
[1]; first compound 2 µM
  relative viability: 0.551
[2]; first compound 0.2 µM
  relative viability: 0.711
[2]; first compound 0.6325 µM
  relative viability: 0.409
[2]; first compound 2 µM
  relative viability: 0.46
[2]; first compound 6.325 µM
  relative viability: 0.479
[2]; first compound 20 µM
  relative viability: 0.426
[3]; first compound 0.02 µM
  relative viability: 0.163
[3]; first compound 0.06325 µM
  relative viability: 0.143
[3]; first compound 0.2 µM
  relative viability: 0.135
[3]; first compound 0.6325 µM
  relative viability: 0.159
[3]; first compound 2 µM
  relative viability: 0.105
[4]; first compound 0.01 µM
  relative viability: 0.686
[4]; first compound 0.03162 µM
  relative viability: 0.535
[4]; first compound 0.1 µM
  relative viability: 0.596
[4]; first compound 0.3162 µM
  relative viability: 0.371
[4]; first compound 1 µM
  relative viability: 0.266

## NCI-H1755
[1]; first compound 0.02 µM
  relative viability: 0.798
[1]; first compound 0.06325 µM
  relative viability: 0.748
[1]; first compound 0.2 µM
  relative viability: 0.619
[1]; first compound 0.6325 µM
  relative viability: 0.768
[1]; first compound 2 µM
  relative viability: 0.687
[2]; first compound 0.2 µM
  relative viability: 1.11
[2]; first compound 0.6325 µM
  relative viability: 0.918
[2]; first compound 2 µM
  relative viability: 0.908
[2]; first compound 6.325 µM
  relative viability: 0.939
[2]; first compound 20 µM
  relative viability: 1.03
[3]; first compound 0.02 µM
  relative viability: 0.849
[3]; first compound 0.06325 µM
  relative viability: 0.887
[3]; first compound 0.2 µM
  relative viability: 0.751
[3]; first compound 0.6325 µM
  relative viability: 0.761
[3]; first compound 2 µM
  relative viability: 0.714
[4]; first compound 0.01 µM
  relative viability: 0.404
[4]; first compound 0.03162 µM
  relative viability: 0.427
[4]; first compound 0.1 µM
  relative viability: 0.33
[4]; first compound 0.3162 µM
  relative viability: 0.294
[4]; first compound 1 µM
  relative viability: 0.195

## NCI-H358
[1]; first compound 0.02 µM
  relative viability: 0.69
[1]; first compound 0.06325 µM
  relative viability: 0.669
[1]; first compound 0.2 µM
  relative viability: 0.66
[1]; first compound 0.6325 µM
  relative viability: 0.762
[1]; first compound 2 µM
  relative viability: 0.594
[2]; first compound 0.2 µM
  relative viability: 1.01
[2]; first compound 0.6325 µM
  relative viability: 0.843
[2]; first compound 2 µM
  relative viability: 0.791
[2]; first compound 6.325 µM
  relative viability: 0.803
[2]; first compound 20 µM
  relative viability: 1.19
[3]; first compound 0.02 µM
  relative viability: 0.163
[3]; first compound 0.06325 µM
  relative viability: 0.137
[3]; first compound 0.2 µM
  relative viability: 0.124
[3]; first compound 0.6325 µM
  relative viability: 0.15
[3]; first compound 2 µM
  relative viability: 0.156
[4]; first compound 0.01 µM
  relative viability: 0.179
[4]; first compound 0.03162 µM
  relative viability: 0.217
[4]; first compound 0.1 µM
  relative viability: 0.16
[4]; first compound 0.3162 µM
  relative viability: 0.171
[4]; first compound 1 µM
  relative viability: 0.0873

## NCI-H1734
[1]; first compound 0.02 µM
  relative viability: 0.705
[1]; first compound 0.06325 µM
  relative viability: 0.739
[1]; first compound 0.2 µM
  relative viability: 0.665
[1]; first compound 0.6325 µM
  relative viability: 0.94
[1]; first compound 2 µM
  relative viability: 0.621
[2]; first compound 0.2 µM
  relative viability: 0.733
[2]; first compound 0.6325 µM
  relative viability: 0.594
[2]; first compound 2 µM
  relative viability: 0.692
[2]; first compound 6.325 µM
  relative viability: 0.677
[2]; first compound 20 µM
  relative viability: 0.822
[3]; first compound 0.02 µM
  relative viability: 0.599
[3]; first compound 0.06325 µM
  relative viability: 0.611
[3]; first compound 0.2 µM
  relative viability: 0.599
[3]; first compound 0.6325 µM
  relative viability: 0.587
[3]; first compound 2 µM
  relative viability: 0.514
[4]; first compound 0.01 µM
  relative viability: 0.482
[4]; first compound 0.03162 µM
  relative viability: 0.373
[4]; first compound 0.1 µM
  relative viability: 0.369
[4]; first compound 0.3162 µM
  relative viability: 0.358
[4]; first compound 1 µM
  relative viability: 0.266

## EPLC-272H
[1]; first compound 0.02 µM
  relative viability: 0.494
[1]; first compound 0.06325 µM
  relative viability: 0.529
[1]; first compound 0.2 µM
  relative viability: 0.266
[1]; first compound 0.6325 µM
  relative viability: 0.528
[1]; first compound 2 µM
  relative viability: 0.41
[2]; first compound 0.2 µM
  relative viability: 0.962
[2]; first compound 0.6325 µM
  relative viability: 0.947
[2]; first compound 2 µM
  relative viability: 0.902
[2]; first compound 6.325 µM
  relative viability: 0.968
[2]; first compound 20 µM
  relative viability: 1.23
[3]; first compound 0.02 µM
  relative viability: 0.25
[3]; first compound 0.06325 µM
  relative viability: 0.294
[3]; first compound 0.2 µM
  relative viability: 0.302
[3]; first compound 2 µM
  relative viability: 0.291
[4]; first compound 0.01 µM
  relative viability: 0.34
[4]; first compound 0.03162 µM
  relative viability: 0.303
[4]; first compound 0.1 µM
  relative viability: 0.238
[4]; first compound 0.3162 µM
  relative viability: 0.234
[4]; first compound 1 µM
  relative viability: 0.139

## NCI-H2126
[1]; first compound 0.02 µM
  relative viability: 0.792
[1]; first compound 0.06325 µM
  relative viability: 0.765
[1]; first compound 0.2 µM
  relative viability: 0.763
[1]; first compound 0.6325 µM
  relative viability: 0.671
[1]; first compound 2 µM
  relative viability: 0.671
[2]; first compound 0.2 µM
  relative viability: 0.762
[2]; first compound 0.6325 µM
  relative viability: 0.73
[2]; first compound 2 µM
  relative viability: 0.699
[2]; first compound 6.325 µM
  relative viability: 0.727
[2]; first compound 20 µM
  relative viability: 0.928
[3]; first compound 0.02 µM
  relative viability: 0.551
[3]; first compound 0.06325 µM
  relative viability: 0.546
[3]; first compound 0.2 µM
  relative viability: 0.571
[3]; first compound 0.6325 µM
  relative viability: 0.637
[3]; first compound 2 µM
  relative viability: 0.524
[4]; first compound 0.01 µM
  relative viability: 0.716
[4]; first compound 0.03162 µM
  relative viability: 0.656
[4]; first compound 0.1 µM
  relative viability: 0.622
[4]; first compound 0.3162 µM
  relative viability: 0.464
[4]; first compound 1 µM
  relative viability: 0.354

From the supplement of paper PMC10307832
